The target of this test is T1, Human AhR (Homo sapiens, UniProt P35869).
T1 construct: expressed in transfected cells
T1 sequence (P35869 11-848): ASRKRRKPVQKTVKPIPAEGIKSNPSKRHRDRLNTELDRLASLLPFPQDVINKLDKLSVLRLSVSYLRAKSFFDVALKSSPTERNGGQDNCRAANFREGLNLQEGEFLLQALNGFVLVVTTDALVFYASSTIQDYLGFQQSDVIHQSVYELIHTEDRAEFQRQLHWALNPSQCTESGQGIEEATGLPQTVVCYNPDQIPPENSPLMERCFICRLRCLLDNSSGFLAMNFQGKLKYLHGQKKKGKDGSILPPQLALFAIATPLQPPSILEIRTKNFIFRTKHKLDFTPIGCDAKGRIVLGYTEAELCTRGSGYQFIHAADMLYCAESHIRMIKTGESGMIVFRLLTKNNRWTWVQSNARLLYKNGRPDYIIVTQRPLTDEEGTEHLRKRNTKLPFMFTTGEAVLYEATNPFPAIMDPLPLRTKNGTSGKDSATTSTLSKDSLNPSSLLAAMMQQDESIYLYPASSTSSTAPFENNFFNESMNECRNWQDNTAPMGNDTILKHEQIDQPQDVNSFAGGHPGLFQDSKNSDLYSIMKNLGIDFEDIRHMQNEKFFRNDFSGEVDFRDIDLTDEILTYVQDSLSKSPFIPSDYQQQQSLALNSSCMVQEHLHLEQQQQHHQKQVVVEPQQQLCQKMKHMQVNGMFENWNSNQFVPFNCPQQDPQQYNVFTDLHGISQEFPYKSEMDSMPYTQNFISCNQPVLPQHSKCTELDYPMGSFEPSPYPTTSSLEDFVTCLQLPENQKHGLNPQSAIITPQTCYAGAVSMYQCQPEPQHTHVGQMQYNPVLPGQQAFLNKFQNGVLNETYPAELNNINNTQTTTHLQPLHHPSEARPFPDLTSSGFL
Nature of the test: hAHR Nuclear Translocation Assay. Particulars: AhR-EGFP nuclear translocation in Jump-In T-REx HEK293 cells, 45 minutes incubation, read-out: Rel EC50. Type of test: cell-based. The text has this:
The purpose of this assay is to measure the ability of compounds to bind to, activate, and induce the translocation of AhR into the nucleus of a cell for transcription. Stable cell lines were established using Jump-InTM T-RExTM HEK293 Retargeting Kit (Life Technologies). Human AhR cDNA was cloned into the pJTI R4 CMV-TO EGFP vector. The EGFP was cloned to the C-terminal of AHR to form AhR-EGFP chimera. The pJTI R4 CMV-TO AhR-EGFP vector was transfected using FuGENE® HD into Jump-InTM T-RExTM HEK293 cells. Transfected cells were selected using 2.5 mg/ml G418 for 10 to 14 days, then expanded, harvested, and suspended in freeze media (FBS with 8% DMSO) at 2×10^7 cells/ml, and aliquots were stored in liquid nitrogen. One day before the assay date, cells were thawed and resuspended in DMEM with 5% FBS in the presence of 1 μg/ml Doxycycline and plated into ploy-L-Lysine coated […]-384 ULTRA Microplates (Perkin Elmer) at 12,000 to 15,000 cells per well and incubated at 37° C. and 5% CO2 overnight. On the assay date, compound was serially diluted (1:2) into 384-well nunc plates with DMSO using acoustic dispensing (ECHO®). The dose response was a 20-point curve. […] The culture media was damped and 25 μl of DMEM plus 0.1% BSA was added, then 25 μL of compound in DMEM plus 0.1% BSA was added into cell plates. Cells were incubated compounds at 37° C. and 5% CO2 for 45 minutes. The final DMSO concentration was 0.2%. The media was damped after 45 minutes incubation. The cells were fixed with 40 μl of cold MeOH (-20° C.) for 20 minutes. The MeOH was damped and 50 μL of DPBS containing 1 μg/mL Hochst was added into the cell plates. The intensity of EGFP was quantitated by using Opera PHENIX® or OPERETTA® high content image system (Perkin Elmer) with 20× Water Objective and five field per well. The ratio of EGFP fluorescent intensity in nuclear over cytosol was analyzed using a 4-parameter nonlinear logistic equation to determine the potency of AhR agonists.

This passage reports EC50 results from US20240199608A1 (Eli Lilly and Company, priority 2022, published 2024).

pEC50: −log10 of the molar value. Read-outs that look alike come from different tables or passages of the source. Bounds are passed on as bounds.

Take `CC1CCc2c1cc(C(=O)Nc1ncc(F)cn1)c1nccn21` (single isomer, unassigned) [Example 13, N-(5-Fluoropyrimidin-2-yl)-6-methyl-7,8-dihydro-6H-cyclopenta[e]imidazo[1,2-a]pyridine-4-carboxamide]: the pEC50 – broadly, the EC50 on a negative log10 scale, so that one unit is a factor of ten – (numeric values) was 9.31. On the same count and under the same terms, the figure for `O=C(Nc1ncc(F)cn1)c1cc2ccccc2n2ccnc12` [Example 2, N-(5-Fluoropyrimidin-2-yl)imidazo[1,2-a]quinoline-4-carboxamide] is 9.23.

`C[C@@H]1CCc2c1cc(C(=O)Nc1ncc(F)cn1)c1nncn21` [Example 6, (R)-N-(5-Fluoropyrimidin-2-yl)-6-methyl-7,8-dihydro-6H-cyclopenta[e][1,2,4]triazolo [4,3-a]pyridine-4-carboxamide]: the negative-log EC50 (pEC50) (numeric values) is 8.24. For `C[C@H]1CCc2c1cc(C(=O)Nc1ncc(F)cn1)c1nncn21` [Example 5, (S)-N-(5-Fluoropyrimidin-2-yl)-6-methyl-7,8-dihydro-6H-cyclopenta[e][1,2,4]triazolo [4,3-a]pyridine-4-carboxamide], where the note is “numeric values”, the pEC50 was 8.24. As to `CC1CCc2c1cc(C(=O)Nc1nccs1)c1nncn21` (single isomer, unassigned) [Example 25, 6-Methyl-N-(thiazol-2-yl)-7,8-dihydro-6H-cyclopenta[e][1,2,4] triazolo[4,3-a]pyridine-4-carboxamide], for the setting “class symbols”, the pEC50 was 8.00 to 9.00. For `CC1CCc2c1cc(C(=O)Nc1ccns1)c1nncn21` (single isomer, unassigned) [Example 39, N-(Isothiazol-5-yl)-6-methyl-7,8-dihydro-6H-cyclopenta[e][1,2,4] triazolo[4,3-a]pyridine-4-carboxamide], the pEC50 (class symbols) was 8.00 to 9.00.

Turning to `C[C@H]1CCc2c1cc(C(=O)Nc1ccccn1)c1nccn21` (single isomer, unassigned) [Example 10, 6-Methyl-N-(pyridin-2-yl)-7,8-dihydro-6H-cyclopenta[e]imidazo[1,2-a]pyridine-4-carboxamide], the pEC50 (numeric values) is 8.88.

On to `CC1CCc2c1cc(C(=O)Nc1ncc(Cl)cn1)c1nncn21` (single isomer, unassigned) [Example 47, N-(5-Chloropyrimidin-2-yl)-6-methyl-7,8-dihydro-6H-cyclopenta[e][1,2,4] triazolo[4,3-a]pyridine-4-carboxamide], for which the pEC50 (class symbols) is 8.00 to 9.00. The same measure, in the same setting: the figure for `CC(C)C1CCc2c1cc(C(=O)Nc1ncc(F)cn1)c1nncn21` (single isomer, unassigned) [Example 59, N-(5-Fluoropyrimidin-2-yl)-6-isopropyl-7,8-dihydro-6H-cyclopenta[e][1,2,4] triazolo[4,3-a]pyridine-4-carboxamide] is 7.30 to 8.00; for `CCC1CCc2c1cc(C(=O)Nc1ncc(F)cn1)c1nncn21` (single isomer, unassigned) [Example 56, 6-Ethyl-N-(5-fluoropyrimidin-2-yl)-7,8-dihydro-6H-cyclopenta[e][1,2,4] triazolo[4,3-a]pyridine-4-carboxamide] it is 8.00 to 9.00. In the case of `CC1CCc2c1cc(C(=O)Nc1ccns1)c1nncn21` (single isomer, unassigned) [Example 38, N-(Isothiazol-5-yl)-6-methyl-7,8-dihydro-6H-cyclopenta[e][1,2,4] triazolo[4,3-a]pyridine-4-carboxamide], the pEC50 (class symbols) is 8.00 to 9.00.

`CC1CCc2c1cc(C(=O)Nc1cnn(C)n1)c1nncn21` (single isomer, unassigned) [Example 61, 6-Methyl-N-(2-methyl-2H-1,2,3-triazol-4-yl)-7,8-dihydro-6H-cyclopenta[e][1,2,4] triazolo[4,3-a]pyridine-4-carboxamide]: the pEC50 (class symbols) was 8.00 to 9.00. The same measure, in the same setting: as for `CCC(C)C1CCc2c1cc(C(=O)Nc1ncc(F)cn1)c1nncn21` (single isomer, unassigned) [Example 60, 6-(sec-butyl)-N-(5-Fluoropyrimidin-2-yl)-7,8-dihydro-6H-cyclopenta[e][1,2,4] triazolo[4,3-a]pyridine-4-carboxamide], the figure is 7.30 to 8.00; as for `CC1CCc2c1cc(C(=O)Nc1ncco1)c1nncn21` (single isomer, unassigned) [Example 30, 6-Methyl-N-(oxazol-2-yl)-7,8-dihydro-6H-cyclopenta[e][1,2,4] triazolo[4,3-a]pyridine-4-carboxamide], 7.30 to 8.00; as for `CC1CCc2c1cc(C(=O)Nc1ncccc1F)c1nncn21` (single isomer, unassigned) [Example 37, N-(3-Fluoropyridin-2-yl)-6-methyl-7,8-dihydro-6H-cyclopenta[e][1,2,4] triazolo[4,3-a]pyridine-4-carboxamide], 8.00 to 9.00. Same read-out and setting: the figure for `CC(C)OC1CCc2c1cc(C(=O)Nc1ncc(F)cn1)c1nncn21` (single isomer, unassigned) [Example 51, N-(5-Fluoropyrimidin-2-yl)-6-isopropoxy-7,8-dihydro-6H-cyclopenta[e][1,2,4] triazolo[4,3-a]pyridine-4-carboxamide] is less than 7.30. For the molecule `COc1ccccc1NC(=O)c1cc2c(n3cnnc13)CCC2C` (single isomer, unassigned) [Example 21, N-(2-methoxyphenyl)-6-methyl-7,8-dihydro-6H-cyclopenta[e][1,2,4] triazolo[4,3-a]pyridine-4-carboxamide], the pEC50 (class symbols) was less than 7.30. On the same count and under the same terms, as for `CC1CCc2c1cc(C(=O)Nc1nccs1)c1nncn21` (single isomer, unassigned) [Example 24, 6-Methyl-N-(thiazol-2-yl)-7,8-dihydro-6H-cyclopenta[e][1,2,4] triazolo[4,3-a]pyridine-4-carboxamide], the figure is 8.00 to 9.00.

On to `Cc1cnc(NC(=O)c2cc3c(n4cnnc24)CCC3C)nc1` (single isomer, unassigned) [Example 28, 6-Methyl-N-(5-methylpyrimidin-2-yl)-7,8-dihydro-6H-cyclopenta[e][1,2,4]tria zolo[4,3-a]pyridine-4-carboxamide], for which the pEC50 (class symbols) is 7.30 to 8.00. With `O=C(Nc1ncc(F)cn1)c1cc2c(n3cnnc13)CCC2C1CC1` (single isomer, unassigned) [Example 66, 6-Cyclopropyl-N-(5-fluoropyrimidin-2-yl)-7,8-dihydro-6H-cyclopenta[e][1,2,4] triazolo[4,3-a]pyridine-4-carboxamide], the pEC50 (class symbols) is 8.00 to 9.00.

For `CC(C)OC1CCc2c1cc(C(=O)Nc1ncc(F)cn1)c1nncn21` (single isomer, unassigned) [Example 50, N-(5-Fluoropyrimidin-2-yl)-6-isopropoxy-7,8-dihydro-6H-cyclopenta[e][1,2,4] triazolo[4,3-a]pyridine-4-carboxamide], under “class symbols”, the pEC50 was less than 7.30. As to `CC1CCc2c1cc(C(=O)Nc1ncc(C(F)(F)F)cn1)c1nncn21` (single isomer, unassigned) [Example 27, 6-Methyl-N-(5-(trifluoromethyl)pyrimidin-2-yl)-7,8-dihydro-6H-cyclopenta[e][1,2,4] triazolo[4,3-a]pyridine-4-carboxamide], the pEC50 (class symbols) was 8.00 to 9.00.

For `CC1CCc2c1cc(C(=O)Nc1ccno1)c1nncn21` (single isomer, unassigned) [Example 44, N-(Isoxazol-5-yl)-6-methyl-7,8-dihydro-6H-cyclopenta[e][1,2,4] triazolo[4,3-a]pyridine-4-carboxamide], the pEC50 (class symbols) was less than 7.30.
